Literature values as cited in patent publication US20240424165A1, “NEW COATING OF IMPLANTS” (Universität Münster, priority 2021, published 2024).
Converted amounts (≈) assume the structure as drawn.

Test system: S. aureus

CO[C@H]1/C=C/O[C@@]2(C)Oc3c(C)c(O)c4c(O)c(c(/C=N/N5CCN(C)CC5)c(O)c4c3C2=O)NC(=O)/C(C)=C\C=C\[C@H](C)[C@H](O)[C@@H](C)[C@@H](O)[C@@H](C)[C@H](OC(C)=O)[C@@H]1C [rifampin]
MIC: 0.06 µg/mL (≈ 0.0729 µM)
